Our source for the IC50 values is US7626031B2, “Substituted 3-(diarylmethylene)indolin-2-ones and methods of their use” (Symphony Evolution, Inc., priority 2002, dated 2009).

The target in assay [1] is T1, KDR (baculovirus expressed human KDR kinase domain D807-V1356) (Homo sapiens, UniProt P35968).
T1 construct: human KDR kinase domain D807-V1356; host or cells: baculovirus expression system
The assay is described as follows: biochemical. On the procedure: (§1) Kinase activity and compound inhibition are investigated using one or more assay formats. The ATP concentrations for each assay are selected to be close to the Michaelis-Menten constant (KM) for each individual kinase. Dose-response experiments are performed at 10 different inhibitor concentrations in a 384-well plate format. […] Exemplary kinase assays are described below. KDR Assay
KDR biochemical activity was assessed using a Luciferase-Coupled Chemiluminescent Kinase assay (LCCA) format. Kinase activity was measured as the percent ATP remaining following the kinase reaction. Remaining ATP was detected by luciferase-luciferin-coupled chemiluminescence. […] The mixture is incubated at ambient temperature for 4 hours after which 20 uL luciferase-luciferin mix is added and the chemiluminescent signal read using a Wallac Victor^2 reader.

The next assay concerns the target FGFR1 (Homo sapiens, UniProt P11362). In words: Kinase assay, FGFR1 (33P-ATP incorporation or luciferase-coupled ATP consumption). In kind it is biochemical. On the procedure: (§2) Kinase assays were performed by measurement of incorporation of γ-^33P ATP into immobilized myelin basic protein (MBP). […] Plates were washed 3× with 100 μl TBS. […] Compound dilutions were performed in DMSO and added to assay wells to a final DMSO concentration of 1%. Each data point was measured in duplicate, and at least two duplicate assays were performed for each individual compound determination. Enzyme was added to final concentrations of 10 nM or 20 nM, for example. A mixture of unlabeled ATP and γ-^33P ATP was added to start the reaction (2×10^6 cpm of γ-^33P ATP per well (3000 Ci/mmole) and either 10 μM or 30 μM unlabeled ATP, typically. The reactions were carried out for 1 hour at room temperature with shaking. Plates were washed 7× with TBS, followed by the addition of 50 μl/well scintillation fluid (Wallac). Plates were read using a Wallac Trilux counter. This is only one format of such assays, various other formats are possible, as known to one of ordinary skill in the art.
(§3) Tyrosine kinase activity is determined by 1) measurement of kinase-dependent ATP consumption by in the presence of a generic substrate such as, polyglutamic acid, tyrosine, 4:1 (pEY), by luciferase/luciferin-mediated chemiluminescence or; 2) incorporation of radioactive phosphate derived from ^33P-ATP into a generic substrate which has been adsorbed onto the well surface of polystyrene microtiter plates. Phosphorylated substrate products are quantified by scintillation spectrometry.
as §1

The target in a further assay is EphA2 (Homo sapiens, UniProt P29317). In words: Kinase assay, EphA2 (33P-ATP incorporation or luciferase-coupled ATP consumption). The format is biochemical. On the procedure:
as §2, §3, §1

A further assay addresses IRK (Homo sapiens, UniProt P06213). The assay is described as follows: Kinase assay, IRK. The format is biochemical. On the procedure: as §1
The next assay has as its target PDGFR alpha (Homo sapiens, UniProt P16234). The assay is described as follows: Kinase assay, PDGFR alpha (33P-ATP incorporation or luciferase-coupled ATP consumption). In kind it is biochemical. The note with it: read-out: PDGF-R-A IC50. The method, then:
as §2, §3, §1

The target of a further assay is Fyn (Homo sapiens, UniProt P06241). The assay is described as follows: Kinase assay, Fyn. The format is biochemical. The method, then: as §1
The next assay deals with EGFR (Homo sapiens, UniProt P00533). The assay is described as follows: Kinase assay, EGFR (33P-ATP incorporation or luciferase-coupled ATP consumption). The format is biochemical. The method, then:
as §2, §3, §1

pIC50: −log10 of the molar value. Where only a bound is given, the exact number is not on record here.

Chain of EphA2 (P29317 24-976, species assumed): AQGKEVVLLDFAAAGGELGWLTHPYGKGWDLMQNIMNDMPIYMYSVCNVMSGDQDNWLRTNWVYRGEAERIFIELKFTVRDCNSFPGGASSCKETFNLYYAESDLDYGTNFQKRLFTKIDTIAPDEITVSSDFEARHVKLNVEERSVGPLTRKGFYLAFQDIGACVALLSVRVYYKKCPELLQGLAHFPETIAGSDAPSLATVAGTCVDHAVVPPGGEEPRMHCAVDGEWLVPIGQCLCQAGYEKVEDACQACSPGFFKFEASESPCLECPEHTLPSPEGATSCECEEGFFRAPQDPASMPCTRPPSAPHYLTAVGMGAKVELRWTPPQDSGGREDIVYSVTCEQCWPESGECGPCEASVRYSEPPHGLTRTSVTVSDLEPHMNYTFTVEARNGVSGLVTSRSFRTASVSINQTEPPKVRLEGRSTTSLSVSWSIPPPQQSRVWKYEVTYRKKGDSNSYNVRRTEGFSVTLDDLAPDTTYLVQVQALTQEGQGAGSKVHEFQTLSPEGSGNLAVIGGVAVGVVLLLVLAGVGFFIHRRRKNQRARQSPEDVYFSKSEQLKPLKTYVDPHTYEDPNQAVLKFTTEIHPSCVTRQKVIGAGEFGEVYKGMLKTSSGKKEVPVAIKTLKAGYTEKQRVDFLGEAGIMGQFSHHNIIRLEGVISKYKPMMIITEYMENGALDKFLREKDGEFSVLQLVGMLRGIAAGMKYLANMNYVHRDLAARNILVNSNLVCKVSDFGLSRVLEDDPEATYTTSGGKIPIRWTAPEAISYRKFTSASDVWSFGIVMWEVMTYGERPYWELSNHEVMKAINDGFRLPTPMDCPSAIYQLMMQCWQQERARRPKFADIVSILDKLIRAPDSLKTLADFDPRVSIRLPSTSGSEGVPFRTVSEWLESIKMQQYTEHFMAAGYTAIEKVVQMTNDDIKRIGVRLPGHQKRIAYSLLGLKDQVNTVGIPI
Chain of Fyn (P06241 whole entry, species assumed): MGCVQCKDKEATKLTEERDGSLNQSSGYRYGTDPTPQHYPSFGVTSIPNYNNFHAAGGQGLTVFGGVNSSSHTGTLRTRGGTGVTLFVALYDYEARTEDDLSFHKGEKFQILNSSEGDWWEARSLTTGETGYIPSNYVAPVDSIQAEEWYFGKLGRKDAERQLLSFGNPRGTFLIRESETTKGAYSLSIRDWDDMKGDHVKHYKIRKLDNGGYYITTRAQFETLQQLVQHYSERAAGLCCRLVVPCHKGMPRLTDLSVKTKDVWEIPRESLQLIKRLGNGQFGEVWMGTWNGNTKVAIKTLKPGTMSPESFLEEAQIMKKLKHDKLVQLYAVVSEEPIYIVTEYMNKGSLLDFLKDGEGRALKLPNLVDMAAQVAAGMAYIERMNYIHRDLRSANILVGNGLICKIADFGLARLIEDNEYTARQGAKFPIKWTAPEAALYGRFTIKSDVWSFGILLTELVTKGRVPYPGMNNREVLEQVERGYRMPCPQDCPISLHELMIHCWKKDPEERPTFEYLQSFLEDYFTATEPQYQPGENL
Chain of IRK (P06213 28-1382): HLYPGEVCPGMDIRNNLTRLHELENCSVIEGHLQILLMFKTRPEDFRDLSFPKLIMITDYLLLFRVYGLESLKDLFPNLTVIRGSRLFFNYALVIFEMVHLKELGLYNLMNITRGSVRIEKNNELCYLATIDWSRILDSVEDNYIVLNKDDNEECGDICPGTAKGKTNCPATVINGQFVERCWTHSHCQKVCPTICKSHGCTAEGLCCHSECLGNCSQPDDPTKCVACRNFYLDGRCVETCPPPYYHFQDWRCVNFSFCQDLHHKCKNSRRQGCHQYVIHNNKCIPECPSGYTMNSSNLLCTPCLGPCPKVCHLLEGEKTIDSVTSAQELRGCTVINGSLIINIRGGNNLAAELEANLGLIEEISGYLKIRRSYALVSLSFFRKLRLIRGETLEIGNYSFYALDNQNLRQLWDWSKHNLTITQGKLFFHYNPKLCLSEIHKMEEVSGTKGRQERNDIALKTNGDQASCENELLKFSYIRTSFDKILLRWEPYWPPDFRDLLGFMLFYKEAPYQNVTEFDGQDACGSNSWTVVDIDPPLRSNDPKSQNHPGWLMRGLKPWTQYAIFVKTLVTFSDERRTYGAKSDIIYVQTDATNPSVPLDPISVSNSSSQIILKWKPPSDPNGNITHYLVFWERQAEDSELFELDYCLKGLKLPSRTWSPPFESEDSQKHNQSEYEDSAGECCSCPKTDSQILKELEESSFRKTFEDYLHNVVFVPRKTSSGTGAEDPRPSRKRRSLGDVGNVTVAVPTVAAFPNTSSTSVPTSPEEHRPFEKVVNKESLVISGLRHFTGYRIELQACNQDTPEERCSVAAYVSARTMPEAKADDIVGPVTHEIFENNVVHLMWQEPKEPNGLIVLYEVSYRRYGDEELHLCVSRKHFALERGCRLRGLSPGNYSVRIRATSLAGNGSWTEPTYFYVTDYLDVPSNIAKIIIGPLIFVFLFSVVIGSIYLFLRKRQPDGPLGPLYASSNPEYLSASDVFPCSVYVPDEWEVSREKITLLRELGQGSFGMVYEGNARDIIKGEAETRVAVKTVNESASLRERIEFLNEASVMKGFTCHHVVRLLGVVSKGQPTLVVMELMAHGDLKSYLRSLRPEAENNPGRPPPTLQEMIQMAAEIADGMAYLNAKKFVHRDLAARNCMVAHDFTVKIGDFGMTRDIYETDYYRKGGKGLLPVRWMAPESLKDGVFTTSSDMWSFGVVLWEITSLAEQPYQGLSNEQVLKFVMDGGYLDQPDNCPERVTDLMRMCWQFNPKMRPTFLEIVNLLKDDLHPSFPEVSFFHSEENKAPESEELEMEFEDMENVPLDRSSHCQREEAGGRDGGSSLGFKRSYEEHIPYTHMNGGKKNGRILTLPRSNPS
T1 sequence (P35968 807-1356): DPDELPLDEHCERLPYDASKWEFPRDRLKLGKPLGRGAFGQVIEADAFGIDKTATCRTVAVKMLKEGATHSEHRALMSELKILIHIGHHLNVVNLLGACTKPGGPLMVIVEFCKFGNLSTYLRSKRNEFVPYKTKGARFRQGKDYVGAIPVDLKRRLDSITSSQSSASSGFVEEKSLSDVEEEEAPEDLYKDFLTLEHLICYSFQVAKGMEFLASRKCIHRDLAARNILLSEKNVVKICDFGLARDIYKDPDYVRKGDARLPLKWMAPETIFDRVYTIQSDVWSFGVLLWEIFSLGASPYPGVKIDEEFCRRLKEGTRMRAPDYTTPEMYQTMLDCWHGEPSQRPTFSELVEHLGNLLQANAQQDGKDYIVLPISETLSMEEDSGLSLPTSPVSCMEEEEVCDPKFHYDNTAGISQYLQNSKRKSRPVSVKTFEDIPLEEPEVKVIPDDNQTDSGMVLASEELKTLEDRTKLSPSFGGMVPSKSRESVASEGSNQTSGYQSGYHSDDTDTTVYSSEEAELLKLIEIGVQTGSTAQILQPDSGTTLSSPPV
Chain of EGFR (P00533 25-1210, species assumed): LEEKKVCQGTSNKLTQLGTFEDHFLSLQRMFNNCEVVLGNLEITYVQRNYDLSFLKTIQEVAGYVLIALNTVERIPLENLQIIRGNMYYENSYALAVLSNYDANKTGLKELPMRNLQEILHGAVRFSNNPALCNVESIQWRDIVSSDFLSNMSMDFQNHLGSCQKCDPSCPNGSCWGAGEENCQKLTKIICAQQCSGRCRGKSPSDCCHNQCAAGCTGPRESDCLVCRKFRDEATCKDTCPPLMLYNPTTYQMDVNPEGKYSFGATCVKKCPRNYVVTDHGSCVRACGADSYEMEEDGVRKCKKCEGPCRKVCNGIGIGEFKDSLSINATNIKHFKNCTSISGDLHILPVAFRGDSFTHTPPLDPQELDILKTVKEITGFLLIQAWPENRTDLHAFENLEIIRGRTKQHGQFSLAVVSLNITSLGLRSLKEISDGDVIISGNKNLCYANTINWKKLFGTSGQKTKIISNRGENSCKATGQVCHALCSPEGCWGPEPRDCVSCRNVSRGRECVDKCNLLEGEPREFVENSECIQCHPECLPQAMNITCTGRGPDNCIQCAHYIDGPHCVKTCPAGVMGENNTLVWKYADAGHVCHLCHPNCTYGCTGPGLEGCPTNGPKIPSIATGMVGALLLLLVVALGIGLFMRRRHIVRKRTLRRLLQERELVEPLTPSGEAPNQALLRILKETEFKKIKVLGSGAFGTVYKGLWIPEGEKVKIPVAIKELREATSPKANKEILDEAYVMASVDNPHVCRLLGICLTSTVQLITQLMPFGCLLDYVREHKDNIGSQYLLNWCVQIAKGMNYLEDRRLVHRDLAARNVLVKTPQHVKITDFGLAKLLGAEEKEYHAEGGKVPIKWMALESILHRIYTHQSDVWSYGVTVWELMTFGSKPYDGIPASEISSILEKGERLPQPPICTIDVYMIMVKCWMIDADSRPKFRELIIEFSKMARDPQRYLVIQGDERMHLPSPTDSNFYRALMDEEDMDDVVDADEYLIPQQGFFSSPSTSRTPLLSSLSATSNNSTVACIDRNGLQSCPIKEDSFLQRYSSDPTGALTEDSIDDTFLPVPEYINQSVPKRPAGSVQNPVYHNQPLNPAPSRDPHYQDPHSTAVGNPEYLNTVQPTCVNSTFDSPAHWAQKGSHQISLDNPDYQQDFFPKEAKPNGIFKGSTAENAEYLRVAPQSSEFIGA

Usually pIC50 stands for the IC50 on a negative log10 scale, so that one unit is a factor of ten. As to `COCCN1CCC(Nc2ccc3c(c2)/C(=C(\c2ccc(Cl)cc2)c2ncc[nH]2)C(=O)N3)CC1` [Entry 91, (3Z)-3-[(4-chlorophenyl)(1H-imidazol-2-yl)methylidene]-5-({1-[2-(methyloxy)ethyl]piperidin-4-yl}amino)-1,3-dihydro-2H-indol-2-one], the negative logarithm of the IC50 (pIC50) in assay [1] is more than 7.30; against FGFR1 it was more than 7.30; at EphA2 it was 5.30 to 6.30; on IRK it was 5.30 to 6.30; at PDGFR alpha, more than 7.30; at Fyn it was more than 7.30. This compound gave a negative-log IC50 (pIC50) against EGFR of less than 5.30.
Turning to `COCCN1CCC(Nc2ccc3c(c2)/C(=C(\c2ccc(OC)cc2)c2ncc[nH]2)C(=O)N3)CC1` [Entry 90], the pIC50 in assay [1] was more than 7.30; against FGFR1 it was 6.30 to 7.30; against EphA2 it was 5.30 to 6.30; against IRK, less than 5.30; on PDGFR alpha, more than 7.30; against Fyn, more than 7.30. In addition, at EGFR, the pIC50 is less than 5.30.
For the compound `COCCN1CCC(Nc2ccc3c(c2)/C(=C(\c2ccc(C(F)(F)F)cc2)c2ncc[nH]2)C(=O)N3)CC1` [Entry 71], the pIC50 in assay [1] was more than 7.30; at FGFR1, more than 7.30; against EphA2, 5.30 to 6.30; on IRK, less than 5.30; on PDGFR alpha, more than 7.30; at Fyn, 6.30 to 7.30. Besides, the pIC50 on EGFR is less than 5.30.
On to `COCCN1CCC(Nc2ccc3c(c2)/C(=C(\c2ccc(F)c(F)c2)c2ncc[nH]2)C(=O)N3)CC1` [Entry 79], for which the negative-log IC50 (pIC50) is more than 7.30 in assay [1]; 6.30 to 7.30 on FGFR1; 5.30 to 6.30 against EphA2; less than 5.30 at IRK; more than 7.30 on PDGFR alpha; 6.30 to 7.30 on Fyn. Also, the negative logarithm of the IC50 (pIC50) on EGFR was less than 5.30.
With `CCN1CCC(Oc2ccc3c(c2)/C(=C(\c2ccccc2)c2nc4cc(OC)ccc4[nH]2)C(=O)N3)CC1` [Entry 14, (3Z)-5-[(1-ethytpiperidin-4-yl)oxy]-3-[[5-(methyloxy)-1H-benzimidazol-2-yl](phenyl)methylidene]-1,3-dihydro-2H-indol-2-one], the negative-log IC50 (pIC50) is 5.30 to 6.30 on EphA2, 5.30 to 6.30 at IRK, more than 7.30 against Fyn and 5.30 to 6.30 against EGFR.
`CCCc1ccc(/C(=C2/C(=O)Nc3ccc(NC4CCN(CCOC)CC4)cc32)c2ncc[nH]2)cc1` [Entry 94, (3Z)-3-[1H-imidazol-2-yl(4-propylphenyl)methylidene]-5-({1-[2-(methyloxy)ethyl]piperidin-4-yl}amino)-1,3-dihydro-2H-indol-2-one]: the negative logarithm of the IC50 (pIC50) is more than 7.30 in assay [1]; more than 7.30 on FGFR1; 5.30 to 6.30 against EphA2; 5.30 to 6.30 against IRK; more than 7.30 against Fyn; 6.30 to 7.30 at EGFR.
Turning to `CCN1CCC(Nc2ccc3c(c2)/C(=C(\c2cccc(F)c2)c2ncn[nH]2)C(=O)N3)CC1` [Entry 99, (3Z)-5-[(1-ethylpiperidin-4-yl)amino]-3-[(3-fluorophenyl)(1H-1,2,4-triazol-5-yl)methylidene]-1,3-dihydro-2H-indol-2-one], the pIC50 was 6.30 to 7.30 in assay [1]; 6.30 to 7.30 against FGFR1; less than 5.30 against EphA2; less than 5.30 against IRK; less than 5.30 at Fyn; less than 5.30 against EGFR.
As for `CCN1CCC(Nc2ccc3c(c2)/C(=C(\c2cc(F)cc(F)c2)c2nc4cc(Cl)ccc4[nH]2)C(=O)N3)CC1` [Entry 56, (3Z)-3-[(5-chloro-1H-benzimidazol-2-yl) (3,5-dilfuorophenyl)methylidene]-5-[(1-ethylpiperidin-4-yl)amino]-1,3-dihydro-2H-indol-2-one], the pIC50 was more than 7.30 in assay [1]; 6.30 to 7.30 against FGFR1; 5.30 to 6.30 at EphA2; less than 5.30 on IRK; more than 7.30 on PDGFR alpha; more than 7.30 against Fyn.
With `CCN1CCC(Nc2ccc3c(c2)/C(=C(\c2ccc(F)c(C)c2)c2nc4ccccc4[nH]2)C(=O)N3)CC1` [Entry 52, (3Z)-3-[1H-benzimidazol-2-yl(4-fluoro-3-methylphenyl)methylidene]-5-{(1-ethylpiperidin-4-yl)amino]-1,3-dihydro-2H-indol-2-one], the pIC50 is more than 7.30 in assay [1]; 6.30 to 7.30 at FGFR1; 5.30 to 6.30 on EphA2; 5.30 to 6.30 against IRK; more than 7.30 at PDGFR alpha; more than 7.30 against Fyn.
With `CCN1CCC(Nc2ccc3c(c2)/C(=C(\c2ccccc2)c2nc4cc(Cl)ccc4[nH]2)C(=O)N3)CC1` [Entry 55, (3Z)-3-[(5-chloro-1H-benzimidazol-2-yl)(phenyl)methylidene]-5-[(1-ethylpiperidin-4-yl)amino]-1,3-dihydro-2H-indol-2-one], the negative-log IC50 (pIC50) was more than 7.30 in assay [1]; 6.30 to 7.30 on FGFR1; 5.30 to 6.30 against EphA2; 5.30 to 6.30 against IRK; more than 7.30 on PDGFR alpha; more than 7.30 against Fyn.
For the compound `CCN1CCC(Nc2ccc3c(c2)/C(=C(\c2cccc(F)c2)c2nc(-c4ccccc4)c[nH]2)C(=O)N3)CC1` [Entry 95, (3Z)-5-[(1-ethylpiperidin-4-yl)amino]-3-[(3-fluorophenyl)(4-phenyl-1H-imidazol-2-yl)methylidene]-1,3-dihydro-2H-indol-2-one], the negative logarithm of the IC50 (pIC50) is more than 7.30 in assay [1]; more than 7.30 against FGFR1; 5.30 to 6.30 against EphA2; 5.30 to 6.30 against IRK; more than 7.30 against Fyn; 6.30 to 7.30 against EGFR.
On to `COCCN1CCC(Nc2ccc3c(c2)/C(=C(\c2ccc(C(F)(F)F)nc2)c2ncc[nH]2)C(=O)N3)CC1` [Entry 98], for which the negative logarithm of the IC50 (pIC50) in assay [1] is 6.30 to 7.30; against FGFR1, 6.30 to 7.30; against EphA2 it was 5.30 to 6.30; against IRK, less than 5.30; on Fyn, 6.30 to 7.30; at EGFR, less than 5.30.
`COCCN1CCC(Nc2ccc3c(c2)/C(=C(\c2cccc(F)c2)c2nc(-c4ccccc4)c[nH]2)C(=O)N3)CC1` [Entry 96, (3Z)-3-[(3-fluorophenyl)(4-phenyl-1H-imidazol-2-yl)methylidene]-5-({1-[2-(methyloxy)ethyl]piperidin-4-yl}amino)-1,3-dihydro-2H-indol-2-one]: the pIC50 in assay [1] is more than 7.30; on FGFR1, more than 7.30; against EphA2, 5.30 to 6.30; against IRK it was 5.30 to 6.30; against Fyn it was more than 7.30; at EGFR it was 6.30 to 7.30.
In the case of `CS(=O)(=O)N1CCC(Nc2ccc3c(c2)/C(=C(\c2cccc(F)c2)c2ncc[nH]2)C(=O)N3)CC1` [Entry 93, (3Z)-3-[(3-fluorophenyl)(1H-imidazol-2-yl)methylidene]-5-{[1-(methylsulfonyl)piperidin-4-yl]amino}-1,3-dihydro-2H-indol-2-one], the pIC50 in assay [1] is 6.30 to 7.30; against FGFR1, 6.30 to 7.30; against EphA2 it was less than 5.30; on IRK, 5.30 to 6.30; against Fyn it was less than 5.30; at EGFR, less than 5.30.
For the compound `CCN1CCCC(Nc2ccc3c(c2)/C(=C(\c2ccccc2)c2nc4cc(OC)ccc4[nH]2)C(=O)N3)C1` (centres unmarked) [Entry 2, (3Z)-5-[(1-ethylpiperidin-3-yl)amino]-3-[[5-(methyloxy)-1H-benzimidazol-2-yl](phenyl)methylidene]-1,3-dihydro-2H-indol-2-one], the negative-log IC50 (pIC50) against EphA2, at Fyn and against EGFR was 5.30 to 6.30 throughout.
